Test results from publication PMC8550792, “Evolution of kinase polypharmacology across HSP90 drug discovery” (Cell Chemical Biology, 2021).
Like-named read-outs stand apart in the source and are kept apart here.

What was measured:
Experiment in all cases: biochemical
Assay type in all cases: biochemical
382 unique human kinases [1] = target: T1, 382 unique human kinases (Homo sapiens, UniProt P10398); settings: compound at 10 uM, duplicate values
T1 construct: purchased Reaction Biology (HotSpot contract assay)
T1 sequence (P10398 1-606): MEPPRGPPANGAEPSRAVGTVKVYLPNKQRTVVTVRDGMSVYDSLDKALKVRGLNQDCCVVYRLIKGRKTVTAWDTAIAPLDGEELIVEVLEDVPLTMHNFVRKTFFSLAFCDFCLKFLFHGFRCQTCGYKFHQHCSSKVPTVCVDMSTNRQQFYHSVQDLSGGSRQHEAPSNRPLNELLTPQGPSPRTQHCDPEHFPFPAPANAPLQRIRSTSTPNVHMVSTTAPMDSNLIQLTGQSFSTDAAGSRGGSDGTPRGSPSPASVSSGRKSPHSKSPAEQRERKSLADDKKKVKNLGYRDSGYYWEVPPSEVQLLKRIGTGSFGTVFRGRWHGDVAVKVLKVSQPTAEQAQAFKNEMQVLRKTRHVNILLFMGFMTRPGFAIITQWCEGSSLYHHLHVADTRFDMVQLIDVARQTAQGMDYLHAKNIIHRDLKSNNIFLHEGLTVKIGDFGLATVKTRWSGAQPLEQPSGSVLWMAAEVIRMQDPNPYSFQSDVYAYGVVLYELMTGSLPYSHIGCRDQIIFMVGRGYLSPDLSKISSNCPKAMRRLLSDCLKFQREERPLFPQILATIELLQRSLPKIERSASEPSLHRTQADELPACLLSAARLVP

382 unique human kinases [2] = target: T2, 382 unique human kinases (Homo sapiens, UniProt P31749); settings: kinase AKT1, compound 10 uM; for remaining activity at 10 µM: read-out: % Enzyme Activity (relative to DMSO controls)
T2 construct: purchased Reaction Biology (HotSpot contract assay)
T2 sequence (P31749 whole entry): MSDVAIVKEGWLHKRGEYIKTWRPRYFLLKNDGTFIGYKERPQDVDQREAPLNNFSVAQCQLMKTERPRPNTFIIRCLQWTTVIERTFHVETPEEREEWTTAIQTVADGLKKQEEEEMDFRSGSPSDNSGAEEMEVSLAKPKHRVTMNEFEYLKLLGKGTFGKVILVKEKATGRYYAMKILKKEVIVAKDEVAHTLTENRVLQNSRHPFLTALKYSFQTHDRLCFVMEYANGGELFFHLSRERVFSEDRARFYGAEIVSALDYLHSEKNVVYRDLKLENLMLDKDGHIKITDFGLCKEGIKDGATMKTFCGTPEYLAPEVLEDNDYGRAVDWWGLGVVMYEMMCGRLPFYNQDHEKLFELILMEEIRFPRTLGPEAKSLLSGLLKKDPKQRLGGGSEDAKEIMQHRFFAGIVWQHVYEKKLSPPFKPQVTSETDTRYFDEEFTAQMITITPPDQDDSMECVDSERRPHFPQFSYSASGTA

382 unique human kinases [3] = target: T3, 382 unique human kinases (Homo sapiens, UniProt Q13164); settings: kinase ERK5/MAPK7, compound 10 uM; for remaining activity at 10 µM: read-out: % Enzyme Activity (relative to DMSO controls)
T3 construct: purchased Reaction Biology (HotSpot contract assay)
T3 sequence (Q13164 whole entry): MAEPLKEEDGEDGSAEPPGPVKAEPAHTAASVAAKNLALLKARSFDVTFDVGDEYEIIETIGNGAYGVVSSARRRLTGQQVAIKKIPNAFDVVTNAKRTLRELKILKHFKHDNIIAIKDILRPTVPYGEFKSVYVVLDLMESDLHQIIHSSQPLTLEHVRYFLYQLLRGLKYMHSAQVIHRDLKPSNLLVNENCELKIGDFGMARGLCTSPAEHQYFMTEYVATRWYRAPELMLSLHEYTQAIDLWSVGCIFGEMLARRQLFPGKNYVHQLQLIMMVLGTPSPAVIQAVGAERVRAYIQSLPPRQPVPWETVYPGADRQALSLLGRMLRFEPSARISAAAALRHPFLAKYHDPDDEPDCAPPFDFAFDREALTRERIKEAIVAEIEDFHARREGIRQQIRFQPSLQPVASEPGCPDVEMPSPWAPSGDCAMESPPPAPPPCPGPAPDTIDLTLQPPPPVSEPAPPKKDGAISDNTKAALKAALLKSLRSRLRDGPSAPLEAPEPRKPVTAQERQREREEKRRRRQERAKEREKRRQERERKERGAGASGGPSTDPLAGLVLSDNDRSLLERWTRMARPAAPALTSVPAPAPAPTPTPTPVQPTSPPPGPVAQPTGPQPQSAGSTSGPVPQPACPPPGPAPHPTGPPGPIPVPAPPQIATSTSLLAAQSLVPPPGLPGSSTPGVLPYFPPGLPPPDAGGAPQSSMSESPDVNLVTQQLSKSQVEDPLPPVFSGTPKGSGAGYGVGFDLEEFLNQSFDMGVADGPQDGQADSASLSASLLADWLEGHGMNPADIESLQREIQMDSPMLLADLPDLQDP

382 unique human kinases [4] = target: T4, 382 unique human kinases (Homo sapiens, UniProt Q9P2K8); settings: kinase EIF2AK4, compound 10 uM; for remaining activity at 10 µM: read-out: % Enzyme Activity (relative to DMSO controls)
T4 construct: purchased Reaction Biology (HotSpot contract assay)
T4 sequence (Q9P2K8 whole entry): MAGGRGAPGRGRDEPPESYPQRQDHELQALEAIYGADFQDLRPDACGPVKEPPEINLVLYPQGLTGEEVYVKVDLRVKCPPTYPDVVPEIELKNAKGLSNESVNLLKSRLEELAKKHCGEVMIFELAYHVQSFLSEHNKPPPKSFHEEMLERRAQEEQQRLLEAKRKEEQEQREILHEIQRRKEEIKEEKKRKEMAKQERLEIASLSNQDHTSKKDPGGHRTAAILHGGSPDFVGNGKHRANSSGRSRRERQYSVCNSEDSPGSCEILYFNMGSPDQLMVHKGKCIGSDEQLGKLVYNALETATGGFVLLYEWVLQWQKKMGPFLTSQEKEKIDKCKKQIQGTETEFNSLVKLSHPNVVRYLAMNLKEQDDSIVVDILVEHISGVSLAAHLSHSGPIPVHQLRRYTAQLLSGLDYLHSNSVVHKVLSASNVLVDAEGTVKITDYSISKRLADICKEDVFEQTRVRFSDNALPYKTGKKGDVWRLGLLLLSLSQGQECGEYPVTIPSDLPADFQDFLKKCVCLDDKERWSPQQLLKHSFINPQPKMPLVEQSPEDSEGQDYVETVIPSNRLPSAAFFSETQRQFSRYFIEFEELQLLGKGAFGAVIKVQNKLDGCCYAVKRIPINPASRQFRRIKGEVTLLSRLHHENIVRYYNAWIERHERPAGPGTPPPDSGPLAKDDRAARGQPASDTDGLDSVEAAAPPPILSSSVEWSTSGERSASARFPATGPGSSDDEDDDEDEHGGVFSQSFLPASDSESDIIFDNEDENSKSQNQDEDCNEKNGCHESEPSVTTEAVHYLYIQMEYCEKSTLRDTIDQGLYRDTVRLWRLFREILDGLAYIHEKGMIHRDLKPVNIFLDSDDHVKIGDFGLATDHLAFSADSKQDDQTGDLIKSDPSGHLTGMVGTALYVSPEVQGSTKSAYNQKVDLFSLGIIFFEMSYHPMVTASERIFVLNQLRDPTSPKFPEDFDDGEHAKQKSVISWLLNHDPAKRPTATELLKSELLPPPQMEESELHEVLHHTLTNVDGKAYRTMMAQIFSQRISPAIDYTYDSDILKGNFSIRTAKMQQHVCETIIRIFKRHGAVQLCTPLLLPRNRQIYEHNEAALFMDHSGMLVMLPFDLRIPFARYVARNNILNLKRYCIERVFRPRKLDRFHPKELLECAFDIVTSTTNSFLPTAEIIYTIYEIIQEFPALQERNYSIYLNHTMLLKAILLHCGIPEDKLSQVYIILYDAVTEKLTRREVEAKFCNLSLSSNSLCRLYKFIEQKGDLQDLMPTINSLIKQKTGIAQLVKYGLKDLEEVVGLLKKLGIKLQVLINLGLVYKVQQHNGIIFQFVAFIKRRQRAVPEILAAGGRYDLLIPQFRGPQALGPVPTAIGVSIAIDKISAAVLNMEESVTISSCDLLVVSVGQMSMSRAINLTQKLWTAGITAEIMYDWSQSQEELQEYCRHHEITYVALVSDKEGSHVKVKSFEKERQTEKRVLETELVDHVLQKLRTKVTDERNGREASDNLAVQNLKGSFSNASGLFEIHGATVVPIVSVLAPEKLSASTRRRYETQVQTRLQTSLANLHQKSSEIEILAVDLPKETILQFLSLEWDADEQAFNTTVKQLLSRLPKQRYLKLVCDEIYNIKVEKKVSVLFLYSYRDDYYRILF

382 unique human kinases [5] = target: T5, 382 unique human kinases (Homo sapiens, UniProt Q9Y2H1); settings: STK38L/NDR2, compound at 10 uM, duplicate values; for remaining activity at 10 µM: read-out: % Enzyme Activity (relative to DMSO controls)
T5 construct: purchased Reaction Biology (HotSpot contract assay)
T5 sequence (Q9Y2H1 whole entry): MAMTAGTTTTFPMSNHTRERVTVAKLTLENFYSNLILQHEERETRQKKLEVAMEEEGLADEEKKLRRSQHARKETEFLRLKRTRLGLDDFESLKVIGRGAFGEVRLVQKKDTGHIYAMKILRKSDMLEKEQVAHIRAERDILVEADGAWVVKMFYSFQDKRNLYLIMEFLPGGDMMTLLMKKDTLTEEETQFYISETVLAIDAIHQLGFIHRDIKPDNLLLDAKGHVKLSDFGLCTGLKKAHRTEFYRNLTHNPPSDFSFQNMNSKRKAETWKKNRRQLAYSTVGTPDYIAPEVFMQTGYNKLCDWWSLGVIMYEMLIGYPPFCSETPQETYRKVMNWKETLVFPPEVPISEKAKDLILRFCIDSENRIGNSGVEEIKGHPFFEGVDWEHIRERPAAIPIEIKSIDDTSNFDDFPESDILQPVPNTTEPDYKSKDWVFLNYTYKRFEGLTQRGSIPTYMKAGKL

382 unique human kinases [6] = target: T6, 382 unique human kinases (Homo sapiens, UniProt P04629); settings: TRKA, [ATP] 100 µM, compound 10 uM; for remaining activity at 10 µM: read-out: % Enzyme Activity (relative to DMSO controls)
T6 construct: purchased Reaction Biology (HotSpot contract assay)
T6 sequence (P04629 33-796): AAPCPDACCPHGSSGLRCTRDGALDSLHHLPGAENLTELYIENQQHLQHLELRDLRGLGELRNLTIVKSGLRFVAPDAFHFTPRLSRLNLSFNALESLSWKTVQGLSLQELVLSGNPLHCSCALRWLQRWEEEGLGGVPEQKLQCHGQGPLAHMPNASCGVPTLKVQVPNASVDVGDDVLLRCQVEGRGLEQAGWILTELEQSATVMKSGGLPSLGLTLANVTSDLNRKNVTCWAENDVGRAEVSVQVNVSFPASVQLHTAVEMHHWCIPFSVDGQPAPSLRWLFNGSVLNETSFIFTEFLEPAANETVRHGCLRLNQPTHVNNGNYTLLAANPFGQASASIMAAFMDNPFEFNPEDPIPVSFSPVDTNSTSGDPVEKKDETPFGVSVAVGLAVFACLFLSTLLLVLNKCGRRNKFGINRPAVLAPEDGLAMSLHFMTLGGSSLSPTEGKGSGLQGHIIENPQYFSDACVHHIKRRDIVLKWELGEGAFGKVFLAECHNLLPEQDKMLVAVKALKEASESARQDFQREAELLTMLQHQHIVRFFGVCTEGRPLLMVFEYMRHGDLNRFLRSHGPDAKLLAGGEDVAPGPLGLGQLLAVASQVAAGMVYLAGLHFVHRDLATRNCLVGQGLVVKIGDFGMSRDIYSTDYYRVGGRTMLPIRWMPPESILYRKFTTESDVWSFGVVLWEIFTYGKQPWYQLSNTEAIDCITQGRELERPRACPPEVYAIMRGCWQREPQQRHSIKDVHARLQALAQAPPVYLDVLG

382 unique human kinases [7] = target: T7, 382 unique human kinases (Homo sapiens, UniProt P08631); settings: HCK, [ATP] 30 µM
T7 construct: purchased Reaction Biology (HotSpot contract assay)
T7 sequence (P08631 whole entry): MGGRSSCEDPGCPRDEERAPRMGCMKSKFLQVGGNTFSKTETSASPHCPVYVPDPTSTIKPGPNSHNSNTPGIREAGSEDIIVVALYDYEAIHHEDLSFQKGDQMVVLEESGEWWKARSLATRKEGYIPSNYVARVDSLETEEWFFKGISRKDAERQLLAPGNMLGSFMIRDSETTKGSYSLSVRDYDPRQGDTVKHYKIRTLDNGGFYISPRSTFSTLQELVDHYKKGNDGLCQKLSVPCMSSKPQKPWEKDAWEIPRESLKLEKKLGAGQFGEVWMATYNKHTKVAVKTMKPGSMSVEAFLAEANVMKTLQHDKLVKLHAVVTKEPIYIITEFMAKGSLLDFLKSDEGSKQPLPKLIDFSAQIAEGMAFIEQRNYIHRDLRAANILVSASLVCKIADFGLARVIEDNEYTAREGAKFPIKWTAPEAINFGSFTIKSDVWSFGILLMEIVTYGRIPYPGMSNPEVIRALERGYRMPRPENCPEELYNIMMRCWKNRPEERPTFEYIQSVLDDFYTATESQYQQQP

382 unique human kinases [8] = target: T8, 382 unique human kinases (Homo sapiens, UniProt P31749, E17K); settings: AKT1 (E17K), 10 uM; for remaining activity at 10 µM: read-out: % Enzyme Activity (relative to DMSO controls)
T8 construct: purchased Reaction Biology (HotSpot contract assay)
T8 sequence (P31749 whole entry E17K): as the sequence (P31749 whole entry) above, with E17K counted along it

382 unique human kinases [9] = target: T9, 382 unique human kinases (Homo sapiens, UniProt P46734); settings: MEK3, 10 uM; for remaining activity at 10 µM: read-out: % Enzyme Activity (relative to DMSO controls)
T9 construct: purchased Reaction Biology (HotSpot contract assay)
T9 sequence (P46734 1-347): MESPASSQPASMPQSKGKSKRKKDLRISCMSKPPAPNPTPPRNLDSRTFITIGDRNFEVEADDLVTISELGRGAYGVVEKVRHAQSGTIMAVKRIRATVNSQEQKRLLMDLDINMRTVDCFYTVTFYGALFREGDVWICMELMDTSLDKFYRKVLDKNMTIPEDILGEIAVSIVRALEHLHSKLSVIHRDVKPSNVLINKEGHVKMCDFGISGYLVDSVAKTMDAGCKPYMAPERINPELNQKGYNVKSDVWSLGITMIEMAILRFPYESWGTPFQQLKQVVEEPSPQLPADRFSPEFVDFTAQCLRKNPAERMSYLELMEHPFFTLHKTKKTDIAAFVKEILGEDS

382 unique human kinases [10] = target: T10, 382 unique human kinases (Homo sapiens, UniProt Q6PHR2); settings: ULK3, 10 uM; for remaining activity at 10 µM: read-out: % Enzyme Activity (relative to DMSO controls)
T10 construct: purchased Reaction Biology (HotSpot contract assay)
T10 sequence (Q6PHR2 1-472): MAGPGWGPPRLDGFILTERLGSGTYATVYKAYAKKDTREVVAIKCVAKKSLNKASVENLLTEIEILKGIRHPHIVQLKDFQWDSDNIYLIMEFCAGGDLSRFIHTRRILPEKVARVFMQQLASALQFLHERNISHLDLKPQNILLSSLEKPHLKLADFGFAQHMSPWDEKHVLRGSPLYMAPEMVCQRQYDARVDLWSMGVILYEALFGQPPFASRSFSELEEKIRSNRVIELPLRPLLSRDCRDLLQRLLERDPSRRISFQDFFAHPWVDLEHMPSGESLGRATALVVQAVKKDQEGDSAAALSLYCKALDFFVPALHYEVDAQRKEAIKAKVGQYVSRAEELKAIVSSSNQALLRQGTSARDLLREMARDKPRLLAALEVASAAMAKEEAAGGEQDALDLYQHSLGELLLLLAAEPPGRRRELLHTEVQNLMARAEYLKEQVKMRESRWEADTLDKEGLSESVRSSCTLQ

[11] = compound 10 uM, read-out: % Enzyme Activity (relative to DMSO controls)

SMILES | remaining activity at 10 µM (382 unique human kinases [2]) | remaining activity at 10 µM (382 unique human kinases [3]) | remaining activity at 10 µM (382 unique human kinases [4]) | remaining activity at 10 µM (382 unique human kinases [5]) | remaining activity at 10 µM (382 unique human kinases [6]) | remaining activity at 10 µM (382 unique human kinases [7]; [11]) | remaining activity at 10 µM (382 unique human kinases [8]) | remaining activity at 10 µM (382 unique human kinases [9]) | remaining activity at 10 µM (382 unique human kinases [10]) | further results
CC(C)c1cc(-c2n[nH]c(=O)n2-c2ccc3c(ccn3C)c2)c(O)cc1O [Ganetespib (STA9090)] | 84.4% | 91.3% | 85.7% | 105% |  |  |  |  |  | remaining activity at 10 µM (382 unique human kinases [1]; read-out: % Enzyme Activity (relative to DMSO controls), ARAF): 158%
CC(C)c1cc(-c2n[nH]c(=O)n2-c2ccc3c(ccn3C)c2)c(O)cc1O [Ganetespib] |  |  |  |  | 52.8% | 14.5% | 94.2% | 103% | 100% | remaining activity at 1 µM (382 unique human kinases [7]; compound 1 uM, read-out: % Enzyme Activity (relative to DMSO controls)): 77.7%
CCNC(=O)c1noc(-c2cc(C(C)C)c(O)cc2O)c1-c1ccc(CN2CCOCC2)cc1 [Luminespib (AUY-922)] | 98.4% | 86.6% | 116% | 108% |  |  |  |  |  | % Enzyme Activity (relative to DMSO controls) (382 unique human kinases [1]; ARAF): 107.23%; remaining activity at 10 µM (382 unique human kinases [1]; ARAF, read-out: % Enzyme Activity (relative to DMSO controls)): 107%; % Enzyme Activity (relative to DMSO controls) (382 unique human kinases [2]): 97.59%; % Enzyme Activity (relative to DMSO controls) (382 unique human kinases [3]): 86.48%; % Enzyme Activity (relative to DMSO controls) (382 unique human kinases [4]): 112.88%; % Enzyme Activity (relative to DMSO controls) (382 unique human kinases [5]): 105.09%
CCNC(=O)c1noc(-c2cc(C(C)C)c(O)cc2O)c1-c1ccc(CN2CCOCC2)cc1 [Luminespib] |  |  |  |  | 101% | 97.2% | 101% | 96.8% | 94.8% | % Enzyme Activity (relative to DMSO controls) (382 unique human kinases [6]): 101.35%; % Enzyme Activity (relative to DMSO controls) (382 unique human kinases [7]; compound 10 uM): 95.21%; % Enzyme Activity (relative to DMSO controls) (382 unique human kinases [8]): 93.12%; % Enzyme Activity (relative to DMSO controls) (382 unique human kinases [9]): 95.40%; % Enzyme Activity (relative to DMSO controls) (382 unique human kinases [10]): 91.59%
